Calls of active or inactive are those of the source. No cut-off for these calls is given here.
Key:
[1] = target: Cytochrome P450 2D6 (Homo sapiens, UniProt P10635); test: Inhibition of CYP2D6 (unknown origin); type: ADME
[2] = target: T1, Muscarinic acetylcholine receptor M4 (Homo sapiens) (UniProt P08173); test: Positive allosteric modulation of human M4 receptor expressed in CHO cells coexpressing Gqi5 by calcium mobilization assay relative to acetylcholine; type: functional, cell-based
T1 sequence (whole entry): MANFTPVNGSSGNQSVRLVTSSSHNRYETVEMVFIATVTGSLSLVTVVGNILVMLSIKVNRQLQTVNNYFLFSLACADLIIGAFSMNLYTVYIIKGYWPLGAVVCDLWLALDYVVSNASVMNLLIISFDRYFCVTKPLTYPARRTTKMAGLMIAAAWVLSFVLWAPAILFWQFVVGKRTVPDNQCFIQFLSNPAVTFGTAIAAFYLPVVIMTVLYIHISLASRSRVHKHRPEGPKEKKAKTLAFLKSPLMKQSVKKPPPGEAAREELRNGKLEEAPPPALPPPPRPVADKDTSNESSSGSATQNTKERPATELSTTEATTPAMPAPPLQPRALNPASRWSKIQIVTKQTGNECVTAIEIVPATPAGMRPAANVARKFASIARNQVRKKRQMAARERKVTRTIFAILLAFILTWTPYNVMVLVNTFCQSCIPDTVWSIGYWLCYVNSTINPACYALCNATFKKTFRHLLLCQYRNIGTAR

[3] = target: Cytochrome P450 2C9 (Homo sapiens, UniProt P11712); test: Inhibition of CYP2C9 (unknown origin); type: ADME
Chain of Cytochrome P450 2C9 (P11712 whole entry): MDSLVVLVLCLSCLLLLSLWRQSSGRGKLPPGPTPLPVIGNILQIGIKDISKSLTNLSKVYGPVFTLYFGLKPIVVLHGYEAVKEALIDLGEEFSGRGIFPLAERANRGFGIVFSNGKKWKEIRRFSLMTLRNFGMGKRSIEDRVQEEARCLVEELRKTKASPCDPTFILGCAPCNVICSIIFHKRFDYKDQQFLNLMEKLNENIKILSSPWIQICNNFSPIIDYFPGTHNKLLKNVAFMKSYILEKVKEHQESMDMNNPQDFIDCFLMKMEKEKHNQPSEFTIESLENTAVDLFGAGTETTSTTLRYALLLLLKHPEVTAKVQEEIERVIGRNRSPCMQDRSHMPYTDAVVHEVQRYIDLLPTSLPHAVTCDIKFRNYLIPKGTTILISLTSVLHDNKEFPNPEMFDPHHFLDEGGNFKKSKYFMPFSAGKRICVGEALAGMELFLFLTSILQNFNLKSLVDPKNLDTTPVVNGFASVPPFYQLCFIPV

[4] = target: T2, Muscarinic acetylcholine receptor M4 (Rattus norvegicus, UniProt P08485); test: Positive allosteric modulation of rat M4 receptor expressed in CHO cells coexpressing Gqi5 by calcium mobilization assay; type: functional, cell-based
T2 sequence (P08485 whole entry): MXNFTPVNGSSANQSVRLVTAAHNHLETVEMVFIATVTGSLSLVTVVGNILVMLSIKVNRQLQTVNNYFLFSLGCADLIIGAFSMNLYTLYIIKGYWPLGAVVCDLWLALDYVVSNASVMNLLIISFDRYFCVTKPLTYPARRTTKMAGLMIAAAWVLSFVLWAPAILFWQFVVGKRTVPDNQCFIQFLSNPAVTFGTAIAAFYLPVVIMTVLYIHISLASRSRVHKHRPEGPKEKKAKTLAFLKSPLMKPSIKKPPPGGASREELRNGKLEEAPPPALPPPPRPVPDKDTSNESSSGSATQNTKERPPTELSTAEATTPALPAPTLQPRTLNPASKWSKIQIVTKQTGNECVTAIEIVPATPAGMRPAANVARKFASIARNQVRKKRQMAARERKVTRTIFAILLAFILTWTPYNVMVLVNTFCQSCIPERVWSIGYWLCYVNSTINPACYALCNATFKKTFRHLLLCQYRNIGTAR

[5] = target: T3, Muscarinic acetylcholine receptor M4 (Rattus norvegicus) (UniProt P08485); test: Positive allosteric modulation of rat M4 receptor expressed in CHO cells coexpressing Gqi5 by calcium mobilization assay relative to acetylcholine; type: functional, cell-based
T3 sequence (whole entry): T2 sequence (P08485 whole entry)

[6] = target: T4, Cytochrome P450 1A2 (Homo sapiens, UniProt P05177); test: Inhibition of CYP1A2 (unknown origin); type: ADME
T4 sequence (P05177 whole entry): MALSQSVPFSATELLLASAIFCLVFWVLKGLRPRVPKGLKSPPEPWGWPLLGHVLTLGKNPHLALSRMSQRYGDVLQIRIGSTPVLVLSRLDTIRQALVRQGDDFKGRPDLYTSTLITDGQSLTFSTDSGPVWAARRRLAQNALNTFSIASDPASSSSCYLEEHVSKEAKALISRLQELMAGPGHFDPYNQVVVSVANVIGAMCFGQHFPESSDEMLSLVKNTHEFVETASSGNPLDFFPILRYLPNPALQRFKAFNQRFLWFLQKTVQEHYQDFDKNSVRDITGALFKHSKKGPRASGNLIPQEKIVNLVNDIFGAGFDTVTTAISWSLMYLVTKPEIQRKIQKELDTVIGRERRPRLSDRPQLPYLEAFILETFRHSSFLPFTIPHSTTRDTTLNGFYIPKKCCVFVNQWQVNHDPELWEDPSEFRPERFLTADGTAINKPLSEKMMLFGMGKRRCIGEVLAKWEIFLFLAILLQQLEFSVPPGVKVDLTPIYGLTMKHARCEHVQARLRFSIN

[7] = Fraction unbound in rat plasma; type: ADME, cell-free
[8] = target: T5, Muscarinic acetylcholine receptor M5 (Homo sapiens) (UniProt P08912); test: Positive allosteric modulation of human M5 receptor expressed in CHOK1 cells by calcium mobilization assay; type: functional, cell-based; conditions: CHO-K1
T5 sequence (whole entry): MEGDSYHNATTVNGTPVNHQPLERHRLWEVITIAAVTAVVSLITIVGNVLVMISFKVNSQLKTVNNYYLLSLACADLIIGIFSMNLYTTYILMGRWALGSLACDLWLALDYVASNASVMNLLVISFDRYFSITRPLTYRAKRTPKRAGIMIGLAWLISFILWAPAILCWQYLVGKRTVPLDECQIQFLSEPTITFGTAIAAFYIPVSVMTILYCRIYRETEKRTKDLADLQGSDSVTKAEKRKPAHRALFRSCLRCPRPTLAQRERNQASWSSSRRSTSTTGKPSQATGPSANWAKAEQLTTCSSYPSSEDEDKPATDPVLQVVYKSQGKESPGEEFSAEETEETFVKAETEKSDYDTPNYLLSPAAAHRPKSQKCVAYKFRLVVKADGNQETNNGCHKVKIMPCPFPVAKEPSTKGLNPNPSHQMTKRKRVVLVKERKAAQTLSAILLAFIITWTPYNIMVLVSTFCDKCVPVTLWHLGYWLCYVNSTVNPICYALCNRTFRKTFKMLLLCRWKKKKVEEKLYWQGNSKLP

[9] = target: Cytochrome P450 3A4 (Homo sapiens, UniProt P08684); test: Inhibition of CYP3A4 (unknown origin); type: ADME
Chain of Cytochrome P450 3A4 (P08684 whole entry): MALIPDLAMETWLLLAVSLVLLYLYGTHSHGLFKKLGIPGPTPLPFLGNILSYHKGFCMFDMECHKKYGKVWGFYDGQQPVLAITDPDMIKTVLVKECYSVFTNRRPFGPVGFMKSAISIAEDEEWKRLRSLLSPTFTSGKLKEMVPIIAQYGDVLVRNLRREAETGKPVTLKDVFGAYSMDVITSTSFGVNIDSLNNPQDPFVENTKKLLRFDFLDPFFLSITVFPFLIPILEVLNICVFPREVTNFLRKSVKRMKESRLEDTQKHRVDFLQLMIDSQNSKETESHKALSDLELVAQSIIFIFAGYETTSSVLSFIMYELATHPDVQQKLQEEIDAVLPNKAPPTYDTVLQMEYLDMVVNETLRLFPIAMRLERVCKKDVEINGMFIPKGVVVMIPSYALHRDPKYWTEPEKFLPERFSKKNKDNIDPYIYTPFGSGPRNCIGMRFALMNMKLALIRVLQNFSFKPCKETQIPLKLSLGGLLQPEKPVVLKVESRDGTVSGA

[10] = target: T6, Muscarinic acetylcholine receptor M4 (Homo sapiens, UniProt P08173); test: Positive allosteric modulation of human M4 receptor expressed in CHO cells coexpressing Gqi5 by calcium mobilization assay; type: functional, cell-based
T6 sequence (P08173 whole entry): T1 sequence (whole entry)

[11] = Fraction unbound in human plasma; type: ADME, cell-free

Chain of Cytochrome P450 2D6 (P10635 whole entry): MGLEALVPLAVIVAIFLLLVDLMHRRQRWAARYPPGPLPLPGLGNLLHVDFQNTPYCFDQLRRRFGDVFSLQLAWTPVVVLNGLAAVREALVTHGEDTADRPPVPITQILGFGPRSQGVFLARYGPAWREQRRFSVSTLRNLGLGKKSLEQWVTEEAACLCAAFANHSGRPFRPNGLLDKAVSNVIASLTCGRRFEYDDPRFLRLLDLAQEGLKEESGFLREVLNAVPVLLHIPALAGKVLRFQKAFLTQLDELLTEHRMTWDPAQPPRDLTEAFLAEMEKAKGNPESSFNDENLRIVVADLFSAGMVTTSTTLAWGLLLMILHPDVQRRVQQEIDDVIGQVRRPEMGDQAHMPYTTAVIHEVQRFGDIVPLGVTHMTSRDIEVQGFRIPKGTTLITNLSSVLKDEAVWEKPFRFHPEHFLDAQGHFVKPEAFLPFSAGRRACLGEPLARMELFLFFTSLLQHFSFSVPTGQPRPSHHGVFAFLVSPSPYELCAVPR

IC50 [1]: 3400 nM | %max [2]: 76% | IC50 [3]: 5800 nM | EC50 [4]: 160 nM | %max [5]: 71% | IC50 [6]: > 20000 nM | fraction unbound [7]: 0.01 | Activity [8]: inactive | IC50 [9]: > 20000 nM | EC50 ([10]; read-out: EC50): 410 nM | EC50 ([10]; read-out: pEC50 (converted)): 1200 nM | fraction unbound [11]: 0.002
Structure (SMILES): Cc1sc2ncnc(N3CCC(C(=O)Nc4ccc(S(N)(=O)=O)cc4)CC3)c2c1C

From ChEMBL document CHEMBL3808342, “Discovery and optimization of a novel series of highly CNS penetrant M4 PAMs based on a 5,6-dimethyl-4-(piperidin-1-yl)thieno[2,3-d]pyrimidine core” (Bioorg Med Chem Lett, 2016)
